Data taken from US11084852B2, “Ubiquitin interacting motif peptides as therapeutics” (OKLAHOMA MEDICAL RESEARCH FOUNDATION, priority 2015, dated 2021).
Positions of bridges follow the written chain, without caps; N, C: chain ends. Non-standard residues stand in square brackets, D forms with d. No end group written: not given here. *: point of attachment. FITC = O=C1OC2(c3ccc(O)cc3Oc3cc(O)ccc32)c2ccc(NC(=S)*)cc21

Assays:
[1] = Kinetic analysis and FUPI peptide distribution in vivo in LLC or B16 tumor-bearing mice
Method: FIGS. 7A-C. Pharmacokinetics of UPI peptide in ex vivo plasma and tumor vessels. (FIG. 7A) Biotinylated-UPI peptide was incubated in ex vivo plasma at 1 μg/ml concentration. The remaining biotin-labeled UPI peptide was quantified by ELISA as indicated at different time point, n=5; (FIG. 7B) FUPI peptide (10 mg/kg, one injection) was i.v.-injected into mice bearing B16 tumors. A time course was scheduled to sacrifice mice as indicated from 2-48 hrs.
FIG. 8. FUPI peptide specifically homes to tumors. B16 tumor-bearing mice were sacrificed at 24-hr time point after control (PBS) or FUPI peptide injection (10 mg/kg, i.v-injection). Tumor and major organs were stained with CD31 (red) and imaged at red channel (CD31), blue channel (DAPI) and green channel (FUPI). Note that green (FITC) is seen only in tumors. […] Other major organs (liver, lung, heart, spleen, kidney, colon, brain, etc) are free of green color, n=4; scale bar: 200 μm.
LLC or B16 tumor-bearing mice were intravenously injected with 20 mg/kg FUPI peptide then sacrificed at different time points. […] FITC and CD31 fluorescent intensity was quantified using Metamorph software. The number of FUPI and CD31-positive vessels were counted and presented as a percentage of FUPI-positive vessels-to-total CD31-positive vessels.

HUVEC^αvβ3 cells = test: Targeting and localization of FITC-conjugated peptides in cultured HUVEC; type: cell-based, human
Method: FIGS. 6A-E. Targeting and localization of UPI peptides in cultured HUVEC^αvβ3. (FIGS. 6A-C) HUVECs were co-transfected with integrins αv and β3 plasmids by electroporation (Nucleofactor device, Lonza), generating HUVEC^αvβ3 cells. 10 μM FUPI (FITC-conjugated UPI) peptide was added to HUVEC^αvβ3 cells or pcDNA transfected control HUVECs.
To ensure targeting specificity and efficacy of the UPI, the inventors treated HUVEC overexpressing αvβ3 integrin (HUVEC^αvβ3) with FITC-conjugated UPI (FUPI) or AP-UIM (FITC-AP-UIM) (Table 2). Normal quiescent endothelial cells, such as HUVEC, express endogenous αvβ3 integrin. However, compared to tumor endothelial cells this expression is considerably lower. By overexpressing αvβ3 integrin in HUVEC, the inventors distinguished peptide targeting to endothelial cells in quiescent versus tumor vasculature. Overexpression of αvβ3 integrin was monitored by FACS and Western blotting (FIGS. 6A-C). […] Given the selective nature of the UPI peptide in vitro, the inventors next validated its tumor vascular-targeting efficacy in vivo after intravenous (i.v.) administration into Lewis lung carcinoma (LLC) and B16F10 (B16) melanoma subcutaneous tumor-bearing mice. […]

[2] = tested on: Lewis lung carcinoma (LLC) tumors; test: Subcutaneous LLC tumor model; set-up: species or system mice; conditions: mouse, in vivo
Text: C56BL/6 mice and TRAMP prostate cancer models were obtained from Jackson Laboratory. SCID/NOD immune-deficient mice were purchased from Charles River Labs (Wilmington, Mass.). WT-Flk, EC-iDKO, EC-iDKO-Flk and EC-iDKO-Notch mice were generated by crossing conditional double knockout mice (EC-iDKO) with Flk-1^fl/fl or NICD^LSL mice as described in (FIGS. 13A-D) (Pasula et al., 2012; Tessneer et al., 2014). All animal protocols have been approved by the IACUC in Oklahoma Medical Research Foundation. Animal tumor models were established as follows: • (1) Subcutaneous Tumor Models (LLC, melanoma B16 and glioma U87/SCID): LLC, melanoma and glioma tumor models were established as previously described (Pasula et al., 2012). Synthetic peptides were administered at 10 mg/kg intravenously every second day beginning after small tumors were established (20-50 mm^3; approximately 12 days post implantation). Tumor volumes were monitored every other day until euthanized following IACUC tumor scoring system. • (2) TRAMP Prostate Tumor Model (Transgenic Adenocarcinoma of Mouse Prostate). […] Mortality rates were recorded. Prostate tumors were analyzed by weighing genitourinary tract (GU), H&E staining, IHC, IF staining and Western blotting as previously described (Pasula et al., 2012; Tessneer et al., 2013). Lymph nodes, lung, liver, spleen and bones were similarly analyzed for metastasis. • (3) B16 Melanoma Metastasis Model. […] Mice were sacrificed after 5 weeks and tissues (including lung, liver and lymph nodes, etc.) were harvested and analyzed for metastasis by gross morphology, H&E, IHC or IF staining, as well as Western blotting. • (4) Orthotopical Glioma Tumor Models (U87/SCID and GL261/C56BL/6). […] Tumors were monitored by MRI as previously described (Pasula et al., 2012). […] Tumor volume was analyzed by MRI every other day until the mice died or were euthanized following IACUC tumor scoring system. Mortality rates were recorded. […]

[3] = free acid; cited from earlier work
[4] = in vivo; cited from earlier work
atherosclerotic lesion = test: ApoE-/- mouse atherosclerosis model; conditions: in vivo
Text: (§1) FIGS. 25A-E. Therapeutic potential in atherosclerosis animal models. (FIG. 25A) Targeting lyp-UIM peptide to atheroma by FITC conjugated peptide. (FIG. 25B). […] (FIG. 25C) Quantification for FIG. 25B, red bars represent lesion area by percentile; green bars represent macrophage percentile in different treatment. P values is indicated in the graphs.

atherosclerosis lesion = test: Carotid atherosclerotic mouse model; type: in vivo
Text: as §1

[5] = cited from earlier work
gliomas = conditions: before, at the time of or after tumor implantation; cited from earlier work
PDGFR-β = target: T1, PDGFR-β (Mus musculus, UniProt P05622); test: Biochemical pulldown assay using ex vivo tumors; type: binding, mice; conditions: biotinylated peptide, ex vivo tumor lysates
T1 construct: from tissue; host or cells: LLC or GL261 glioma subcutaneous tumors from C57BL/6 mice
T1 sequence (P05622 32-1098): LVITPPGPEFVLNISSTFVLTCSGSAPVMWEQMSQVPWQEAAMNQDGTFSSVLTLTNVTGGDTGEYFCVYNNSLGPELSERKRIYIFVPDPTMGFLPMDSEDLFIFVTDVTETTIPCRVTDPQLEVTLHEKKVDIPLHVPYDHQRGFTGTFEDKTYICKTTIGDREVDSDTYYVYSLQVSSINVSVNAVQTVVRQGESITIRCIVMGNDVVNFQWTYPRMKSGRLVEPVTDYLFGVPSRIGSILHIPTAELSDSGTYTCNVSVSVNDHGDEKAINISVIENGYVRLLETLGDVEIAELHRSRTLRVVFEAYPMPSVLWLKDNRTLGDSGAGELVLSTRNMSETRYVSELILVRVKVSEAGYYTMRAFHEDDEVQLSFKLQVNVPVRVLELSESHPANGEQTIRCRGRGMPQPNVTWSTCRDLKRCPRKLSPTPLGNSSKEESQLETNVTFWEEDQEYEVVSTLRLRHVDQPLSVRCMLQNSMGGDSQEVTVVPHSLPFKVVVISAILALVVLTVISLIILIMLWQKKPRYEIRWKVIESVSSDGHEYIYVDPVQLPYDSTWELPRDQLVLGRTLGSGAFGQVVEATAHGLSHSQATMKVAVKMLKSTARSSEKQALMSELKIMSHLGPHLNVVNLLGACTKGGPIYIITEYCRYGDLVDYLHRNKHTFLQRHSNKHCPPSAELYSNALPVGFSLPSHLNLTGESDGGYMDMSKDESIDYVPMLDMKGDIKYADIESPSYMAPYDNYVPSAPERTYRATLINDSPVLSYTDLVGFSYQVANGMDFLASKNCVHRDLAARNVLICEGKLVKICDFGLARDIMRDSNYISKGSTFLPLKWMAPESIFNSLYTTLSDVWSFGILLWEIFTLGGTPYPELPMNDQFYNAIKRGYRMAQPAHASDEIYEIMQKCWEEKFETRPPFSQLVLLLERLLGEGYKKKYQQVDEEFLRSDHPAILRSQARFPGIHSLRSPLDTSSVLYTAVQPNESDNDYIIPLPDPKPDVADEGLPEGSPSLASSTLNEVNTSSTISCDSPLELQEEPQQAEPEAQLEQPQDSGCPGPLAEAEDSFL
Method: (§2) (FIGS. 15A and 15C) LLC (FIG. 15A) or Glioma GL261 (FIG. 15C) subcutaneous tumors removed from C57BL/6 mice were homogenized in lysis buffer containing 50 mM Tris-HCl pH 7.5, 150 mM NaCl, 0.05% NP-40, 10% glycerol, 1× cocktail (Roche) and 20 mM NEM (N-ethylmaleimide). Lysate protein concentration was determined by BCA kit (Pierce). 2 mg of total lysate was co-incubated with 50 μg of either biotinylated UPI peptide, UPI mutant (UPI-Mut) peptide or control peptide. Neutri-Avidin beads (Invitrogen) were then added to pulldown biotinylated UPI or control peptide. These beads were subjected to two washes with lysis buffer and two washes with ½ lysis solutions. Afterwards, beads were boiled in 2× loading buffer and the supernatant was used for Western blot analysis of VEGFR2, PDGFR-β, EGFR and FGFR1; (FIGS. 15B and 15D) Quantification of peptide pulldown of VEGFR2 in LLC (FIG. 15B) and Glioma GL261 (FIG. 15D) tumors, n=5; P values are indicated in the figures.
(§3) LLC or GL261 glioma tumors was homogenized in lysis buffer containing 50 mM Tris-HCl pH7.5, 150 mM NaCl, 0.05% NP-40, 10% Glycerol, 1× cocktail, and 20 mM NEM. Protein concentration was determined by BCA kit (Pierce). 0.5-2 mg lysates were co-incubated with 100 μM biotinylated UPI or control peptides, followed by the addition of Neutri-Avidin beads (Invitrogen) for pulldown binding assay. Beads were washed twice with lysis buffer, then twice with 1:1 lysis buffer PBS. Beads were then boiled for 5 min in 2× sample loading buffer. Denatured proteins were subjected to Western blotting using anti-VEGFR2, anti-EGFR, anti-FGFR1 and anti-PDGFR-β antibodies.

EGFR = target: T2, EGFR (Mus musculus, UniProt Q01279); test: Biochemical pulldown assay using ex vivo tumors; type: binding, mice; conditions: biotinylated peptide, ex vivo tumor lysates
T2 construct: from tissue; host or cells: LLC or GL261 glioma subcutaneous tumors from C57BL/6 mice
Method: as §2, §3

VEGFR2 = target: T3, VEGFR2 (Mus musculus, UniProt P35918); test: Biochemical pulldown assay using ex vivo tumors; type: binding, mice; conditions: biotinylated peptide, ex vivo LLC or GL261 tumor lysates
T3 construct: from tissue; host or cells: LLC or GL261 glioma subcutaneous tumors from C57BL/6 mice
T3 sequence (P35918 20-1345): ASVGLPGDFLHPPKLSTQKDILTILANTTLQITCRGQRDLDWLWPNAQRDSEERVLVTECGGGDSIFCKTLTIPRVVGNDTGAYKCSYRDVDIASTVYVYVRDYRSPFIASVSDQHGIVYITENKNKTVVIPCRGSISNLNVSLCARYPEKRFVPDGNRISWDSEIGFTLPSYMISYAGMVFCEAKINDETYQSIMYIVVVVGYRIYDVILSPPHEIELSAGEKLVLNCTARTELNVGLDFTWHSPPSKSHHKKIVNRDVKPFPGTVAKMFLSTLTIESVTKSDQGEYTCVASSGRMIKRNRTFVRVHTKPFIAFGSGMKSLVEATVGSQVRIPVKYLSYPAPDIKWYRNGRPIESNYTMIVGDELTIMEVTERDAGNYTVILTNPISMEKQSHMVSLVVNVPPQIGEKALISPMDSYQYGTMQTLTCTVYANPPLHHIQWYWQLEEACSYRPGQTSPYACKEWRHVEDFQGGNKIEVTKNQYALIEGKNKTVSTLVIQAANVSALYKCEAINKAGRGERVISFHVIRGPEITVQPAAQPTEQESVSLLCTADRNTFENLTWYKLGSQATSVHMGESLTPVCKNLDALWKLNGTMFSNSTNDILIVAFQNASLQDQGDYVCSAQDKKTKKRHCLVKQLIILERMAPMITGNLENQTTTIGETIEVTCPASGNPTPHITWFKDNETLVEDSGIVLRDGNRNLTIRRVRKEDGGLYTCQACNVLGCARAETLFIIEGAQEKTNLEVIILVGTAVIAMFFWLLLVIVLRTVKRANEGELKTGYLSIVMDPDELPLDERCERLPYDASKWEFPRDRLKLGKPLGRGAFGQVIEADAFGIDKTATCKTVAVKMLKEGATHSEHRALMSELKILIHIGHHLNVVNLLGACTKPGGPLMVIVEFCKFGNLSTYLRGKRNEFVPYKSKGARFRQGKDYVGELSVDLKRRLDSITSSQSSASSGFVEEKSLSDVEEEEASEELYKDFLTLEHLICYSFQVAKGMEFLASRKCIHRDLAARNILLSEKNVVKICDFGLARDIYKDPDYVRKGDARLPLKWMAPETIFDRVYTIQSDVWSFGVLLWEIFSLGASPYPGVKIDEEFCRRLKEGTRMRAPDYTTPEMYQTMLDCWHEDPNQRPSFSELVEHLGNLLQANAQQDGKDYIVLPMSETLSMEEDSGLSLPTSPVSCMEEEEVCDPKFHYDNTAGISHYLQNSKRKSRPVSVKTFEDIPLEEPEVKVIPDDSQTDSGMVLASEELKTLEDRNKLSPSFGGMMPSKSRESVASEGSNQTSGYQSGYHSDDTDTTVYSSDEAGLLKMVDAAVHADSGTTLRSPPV
Method: as §2, §3

FGFR1 = target: T4, FGFR1 (Mus musculus, UniProt P16092); test: Biochemical pulldown assay using ex vivo tumors; type: binding, mice; conditions: biotinylated peptide, ex vivo tumor lysates
T4 construct: from tissue; host or cells: LLC or GL261 glioma subcutaneous tumors from C57BL/6 mice
T4 sequence (P16092 22-822): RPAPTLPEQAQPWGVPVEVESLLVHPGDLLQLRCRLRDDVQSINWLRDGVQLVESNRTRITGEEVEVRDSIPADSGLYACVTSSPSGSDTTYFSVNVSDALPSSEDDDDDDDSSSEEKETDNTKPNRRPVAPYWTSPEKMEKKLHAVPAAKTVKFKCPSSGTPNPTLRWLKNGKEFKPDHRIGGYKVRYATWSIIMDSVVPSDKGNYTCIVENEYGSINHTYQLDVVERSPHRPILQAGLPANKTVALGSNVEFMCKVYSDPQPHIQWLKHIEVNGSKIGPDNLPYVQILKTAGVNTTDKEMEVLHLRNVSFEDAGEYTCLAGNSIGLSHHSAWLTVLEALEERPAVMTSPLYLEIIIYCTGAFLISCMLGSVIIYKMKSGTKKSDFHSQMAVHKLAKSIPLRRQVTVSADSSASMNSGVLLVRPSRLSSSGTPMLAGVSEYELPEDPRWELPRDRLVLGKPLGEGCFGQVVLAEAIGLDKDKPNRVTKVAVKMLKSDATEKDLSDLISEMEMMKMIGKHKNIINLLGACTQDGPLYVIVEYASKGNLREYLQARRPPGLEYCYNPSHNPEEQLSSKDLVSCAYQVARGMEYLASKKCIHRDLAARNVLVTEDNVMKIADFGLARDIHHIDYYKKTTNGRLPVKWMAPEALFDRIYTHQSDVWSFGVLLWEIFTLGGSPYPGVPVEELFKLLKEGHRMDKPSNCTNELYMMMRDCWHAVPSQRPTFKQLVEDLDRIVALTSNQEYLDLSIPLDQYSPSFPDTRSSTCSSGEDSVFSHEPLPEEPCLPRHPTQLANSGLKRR
Method: as §2, §3

Molecule: FUPI: FITC-conjugated UPI peptide ({FITC}-[dS]G[dE][dE][dE][dL][dQ][dL][dQ][dL][dA][dL][dA][dM][dS][dK][dE][dE][dM]G[dC][dI][dK][dS][dK][dR][dK][dC][dR]G[dD][dK]G[dP][dD][dC]; disulfide 28-36 (inferred); not fully specified)
- retention within vessels of tumors after injection ([1]; B16 melanoma tumors, one i.v. injection): up to 48 hours
- tissue distribution after intravenous injection ([1]; subcutaneous LLC or B16 melanoma tumors): significant concentration within tumor vasculature, but not other major organs
- peptide accumulation in HUVEC^αvβ3 versus HUVEC (HUVEC^αvβ3 cells; FITC-conjugated peptide, 10 μM, 15 hr): accumulated selectively in HUVEC^αvβ3, but not in HUVEC alone
- intracellular localization of accumulated peptide (HUVEC^αvβ3 cells; HUVEC^αvβ3): highly enriched at the plasma membrane

Molecule: SEEDMIEWAKRESEREEEQRMGCIKSKRKCRGDKGPDC [Eps15-UIM]
- tumor growth in LLC tumor-bearing mice, variant peptides [2]: neither Eps15-UIM nor Hrs-UIM peptides affected tumor growth

Molecule: CC(C)(C)[N+]([O-])=Cc1ccc(S(=O)(=O)O)cc1S(=O)(=O)O [2,4-ds PBN, 2,4-disulfonyl phenyl-tert-butyl nitrone]
- solubility in water [3]: greater than 1 gram/ml
- efficacy compared to PBN [4]: unexpected increase in efficacy as compared to PBN
- toxicity compared to PBN [4]: marked and highly significant decrease in toxicity as compared to PBN

Molecule: QEEEELQLALALSQSEAEEKMGCIKSKRKCRGDKGPDC [Hrs-UIM]
- tumor growth in LLC tumor-bearing mice, variant peptides [2]: neither Eps15-UIM nor Hrs-UIM peptides affected tumor growth

Molecule: CGNKRTRGCSGEEELQLQLALAMSKEE [Lyp-UIM peptide]
- atherosclerotic lesion development (arch) (atherosclerotic lesion): significantly attenuated atherosclerotic lesion development (arch)
- atherosclerotic lesion development (root) (atherosclerotic lesion): significantly attenuated atherosclerotic lesion development (root)
- macrophage infiltration (atherosclerosis lesion; mouse, in vivo): reduced macrophage infiltration
- atherosclerosis lesion development (atherosclerosis lesion; western diet): greatly reduced atherosclerosis lesion development

Molecule: CC(C)(C)[N+]([O-])=Cc1ccccc1 [PBN, phenyl N-tert-butyl nitrone]
- tissue distribution ([5]; rat, in vivo): readily and rapidly distributed almost equally to all tissues
- half-life ([5]; rats): about 132 minutes
- tumor development (gliomas) (gliomas): able to control tumor development

Molecule: UPI-Mut: UPI bearing the Q9A/A13S/K16A triple mutation in the epsin UIM, SEQ ID NO: 43 ([dS]G[dE][dE][dE][dL][dQ][dL][dA][dL][dA][dL][dS][dM][dS][dA][dE][dE][dM]G[dC][dI][dK][dS][dK][dR][dK][dC][dR]G[dD][dK]G[dP][dD][dC]; disulfide 28-36 (inferred); not fully specified)
- tumor growth in LLC tumor-bearing mice, variant peptides [2]: failed to inhibit tumor growth compared to mice treated with UPI peptide
- co-precipitation of PDGFR-β (PDGFR-β): neither UPI nor UPI-Mut peptide pulled down
- co-precipitation of EGFR (EGFR): neither UPI nor UPI-Mut peptide pulled down
- binding to VEGFR2 in pulldown (VEGFR2): exhibited reduced binding to VEGFR2
- co-precipitation of FGFR1 (FGFR1): neither UPI nor UPI-Mut peptide pulled down
